Measured values as given in patent US12622975B2, “Peptide-conjugated prodrugs” (priority 2019, dated 2026).
Converted amounts (≈) assume the structure as drawn. “And” between values parts separate entries of the source, which are not always exact repeats. Identical values can stand only once. Like-named read-outs stand apart in the source and are kept apart here. Numbered stars: 1 amine (or outer) side, 2 acyl side, 3 side chain; on linkers, the order of the positions; unused ones are H or OH. Square brackets hold non-standard residues; d marks the D form. Peptide text beside a SMILES is read from it. * marks the point of attachment. X1 = O=C(CCC(=O)[*:2])OCC(N[*:1])C(O)c1ccc([N+](=O)[O-])cc1; Dichloroacetyl = O=C(C(Cl)Cl)*

Assays:
[1] = test system: wild type E. coli strain (K-12); assay: Bacteria culture and inhibitory activity assay (MIC); assay type: cell-based; details: wild type E. coli (K-12); for MIC: Escherichia coli
Description: Bacteria culture and inhibitory activity assay: Single esterase (BioH, YjfP, FrsA, YbfF, YfbB, YqiA, YeiG, or and YpfH) deletion mutants were purchased from Dharmacon Horizon Discovery (Cambridge, United Kingdom). […] Compounds were added at different concentrations.
Compounds were added at different concentrations.

[2] = Stability in human serum (LC-MS); assay type: in vitro ADME; details: human serum, 200 μM, 37° C.
[3] = test system: HS-5 cells; assay: Cell viability assay (MTT), HS-5; assay type: cell-based, human; details: 24 hours; for cytotoxicity of control compounds against HS-5 cells: around MIC values (0.5 μM)

SMILES | MIC (μM) [1] [µM] | further results
O=C(O)CC(NC(=O)C(CC(=O)O)NC(=O)CCC(=O)OCC(NC(=O)C(Cl)Cl)C(O)c1ccc([N+](=O)[O-])cc1)C(=O)O (centres unmarked) [Compound 2h] | >200 | –
CC(NC(=O)C(C)NC(=O)CCC(=O)OCC(NC(=O)C(Cl)Cl)C(O)c1ccc([N+](=O)[O-])cc1)C(=O)O (centres unmarked) [Compound 1h] | 100 (≈ 56.5 µg/mL) | –
O=C(O)CNC(=O)C(Cc1ccccc1)NC(=O)CNC(=O)CCC(=O)OCC(NC(=O)C(Cl)Cl)C(O)c1ccc([N+](=O)[O-])cc1 (centres unmarked) [Compound 1m] | 20 (≈ 13.7 µg/mL) | –
O=C(O)CNC(=O)CNC(=O)CNC(=O)CNC(=O)CCC(=O)OCC(NC(=O)C(Cl)Cl)C(O)c1ccc([N+](=O)[O-])cc1 (centres unmarked) [Compound 1f] (Dichloroacetyl-[X1]GGGG-OH) | 20 (≈ 13 µg/mL) | –
O=C(CCC(=O)OCC(NC(=O)C(Cl)Cl)C(O)c1ccc([N+](=O)[O-])cc1)NCC(=O)NCC(=O)NC(Cc1ccccc1)C(=O)NC(Cc1ccccc1)C(=O)O (centres unmarked) [Compound 1o] (Dichloroacetyl-[X1]GGFF-OH; configuration not given here) | 20 (≈ 16.6 µg/mL) | Compounds remaining (%) 0 h [2]: 100%; Compounds remaining (%) 2 h [2]: 7.2%; Compounds remaining (%) 24 h [2]: 0%
CC(NC(=O)C(C)NC(=O)C(C)NC(=O)CCC(=O)OCC(NC(=O)C(Cl)Cl)C(O)c1ccc([N+](=O)[O-])cc1)C(=O)O (centres unmarked) [Compound 1i] | 80 (≈ 50.9 µg/mL) | –
N=C(N)NCCCC(NC(=O)C(CCCNC(=N)N)NC(=O)C(Cc1ccccc1)NC(=O)C(Cc1ccccc1)NC(=O)CCC(=O)OCC(NC(=O)C(Cl)Cl)C(O)c1ccc([N+](=O)[O-])cc1)C(=O)O (centres unmarked) [Compound 2d] (Dichloroacetyl-[X1]FFRR-OH; configuration not given here) | 200 (≈ 206 µg/mL) | –
O=C(O)CC(NC(=O)CNC(=O)CCC(=O)OCC(NC(=O)C(Cl)Cl)C(O)c1ccc([N+](=O)[O-])cc1)C(=O)O (centres unmarked) [Compound 2j] | 20 (≈ 11.9 µg/mL) | –
CC(NC(=O)C(C)NC(=O)C(C)NC(=O)CCC(=O)OCC(NC(=O)C(Cl)Cl)C(O)c1ccc([N+](=O)[O-])cc1)C(=O)O (centres unmarked) [Compound 1j] | 100 (≈ 63.6 µg/mL) | –
CC(C)CC(NC(=O)CNC(=O)CCC(=O)OCC(NC(=O)C(Cl)Cl)C(O)c1ccc([N+](=O)[O-])cc1)C(=O)O (centres unmarked) [Compound 1a] | 20 (≈ 11.9 µg/mL) | –
O=C(O)CNC(=O)CCC(=O)OCC(NC(=O)C(Cl)Cl)C(O)c1ccc([N+](=O)[O-])cc1 (centres unmarked) [CLsuG] | >200 | MIC (μg/mL) [1]: > 95.8 µg/mL and 95.8 µg/mL
O=C(O)CNC(=O)CNC(=O)CNC(=O)CNC(=O)CNC(=O)CCC(=O)OCC(NC(=O)C(Cl)Cl)C(O)c1ccc([N+](=O)[O-])cc1 (centres unmarked) [Compound 1q] (Dichloroacetyl-[X1]GGGGG-OH) | 40 (≈ 28.3 µg/mL) | –
O=C(O)CCC(NC(=O)C(CCC(=O)O)NC(=O)CCC(=O)OCC(NC(=O)C(Cl)Cl)C(O)c1ccc([N+](=O)[O-])cc1)C(=O)O (centres unmarked) [Compound 2g] | >200 | –
NCCCCC(NC(=O)C(CCCCN)NC(=O)C(Cc1ccccc1)NC(=O)C(Cc1ccccc1)NC(=O)CCC(=O)OCC(NC(=O)C(Cl)Cl)C(O)c1ccc([N+](=O)[O-])cc1)C(=O)O (centres unmarked) [Compound 2e] (Dichloroacetyl-[X1]FFKK-OH; configuration not given here) | 200 (≈ 195 µg/mL) | –
O=C(N[C@H](CO)[C@H](O)c1ccc([N+](=O)[O-])cc1)C(Cl)Cl [CL, chloramphenicol, reference compound] | – | cytotoxicity / cell viability of HS-5 cells ([3]; 20 μM): reduced the viability; MIC ([1]; read-out: MIC): 20 µM; MIC ([1]; read-out: MIC (μg/mL)): 6.5 µg/mL
O=C(O)CC(NC(=O)C(CC(=O)O)NC(=O)CCC(=O)OCC(NC(=O)C(Cl)Cl)C(O)c1ccc([N+](=O)[O-])cc1)C(=O)O (centres unmarked) [Compound 2i] | 200 (≈ 131 µg/mL) | –
O=C(O)CNC(=O)CNC(=O)C(Cc1ccccc1)NC(=O)CCC(=O)OCC(NC(=O)C(Cl)Cl)C(O)c1ccc([N+](=O)[O-])cc1 (centres unmarked) [Compound 1n] | 80 (≈ 54.8 µg/mL) | –
O=C(O)c1cn(C2CC2)c2cc(N3CCNCC3)c(F)cc2c1=O [ciprofloxacin] | – | cytotoxicity of control compounds against HS-5 cells [3]: relatively low cytotoxicity
CC(NC(=O)CNC(=O)CCC(=O)OCC(NC(=O)C(Cl)Cl)C(O)c1ccc([N+](=O)[O-])cc1)C(=O)O (centres unmarked) [Compound 1b] | 20 (≈ 11 µg/mL) | –
O=C(CCC(=O)OCC(NC(=O)C(Cl)Cl)C(O)c1ccc([N+](=O)[O-])cc1)NC(Cc1ccccc1)C(=O)NC(Cc1ccccc1)C(=O)O (centres unmarked) [Compound 3a] | 100 (≈ 71.8 µg/mL) | –
CC(NC(=O)C(C)NC(=O)CCC(=O)OCC(NC(=O)C(Cl)Cl)C(O)c1ccc([N+](=O)[O-])cc1)C(=O)O (centres unmarked) [Compound 1g] | 80 (≈ 45.2 µg/mL) | –
N=C(N)NCCCC(NC(=O)C(CCCNC(=N)N)NC(=O)CCC(=O)OCC(NC(=O)C(Cl)Cl)C(O)c1ccc([N+](=O)[O-])cc1)C(=O)O (centres unmarked) [Compound 2a] | 200 (≈ 147 µg/mL) | –
CC[C@H]1OC(=O)[C@H](C)C(=O)[C@H](C)[C@@H](O[C@@H]2O[C@H](C)C[C@H](N(C)C)[C@H]2O)[C@](C)(OC)C[C@@H](C)C(=O)[C@H](C)[C@H]2N(CCCCn3cnc(-c4cccnc4)c3)C(=O)O[C@]12C [telithromycin] | – | cytotoxicity of control compounds against HS-5 cells [3]: relatively low cytotoxicity
CNC(=O)CNC(=O)CNC(=O)CCC(=O)OCC(NC(=O)C(Cl)Cl)C(O)c1ccc([N+](=O)[O-])cc1 (centres unmarked) [Compound 1e] | 20 (≈ 11 µg/mL) | –
O=C(CCC(=O)OCC(NC(=O)C(Cl)Cl)C(O)c1ccc([N+](=O)[O-])cc1)NCC(=O)NCC(=O)NC(Cc1ccccc1)C(=O)O (centres unmarked) [Compound 1k] | 20 (≈ 13.7 µg/mL) | Compounds remaining (%) 0 h [2]: 100%; Compounds remaining (%) 2 h [2]: 0%; Compounds remaining (%) 24 h [2]: 0%
NCCCCC(NC(=O)CNC(=O)CCC(=O)OCC(NC(=O)C(Cl)Cl)C(O)c1ccc([N+](=O)[O-])cc1)C(=O)O (centres unmarked) [Compound 2f] | 20 (≈ 12.2 µg/mL) | Compounds remaining (%) 0 h [2]: 100%; Compounds remaining (%) 2 h [2]: 0%; Compounds remaining (%) 24 h [2]: 0%
